For test [1], the target named is T1, Androgen receptor (Mus musculus, UniProt P19091).
T1 sequence (P19091 whole entry): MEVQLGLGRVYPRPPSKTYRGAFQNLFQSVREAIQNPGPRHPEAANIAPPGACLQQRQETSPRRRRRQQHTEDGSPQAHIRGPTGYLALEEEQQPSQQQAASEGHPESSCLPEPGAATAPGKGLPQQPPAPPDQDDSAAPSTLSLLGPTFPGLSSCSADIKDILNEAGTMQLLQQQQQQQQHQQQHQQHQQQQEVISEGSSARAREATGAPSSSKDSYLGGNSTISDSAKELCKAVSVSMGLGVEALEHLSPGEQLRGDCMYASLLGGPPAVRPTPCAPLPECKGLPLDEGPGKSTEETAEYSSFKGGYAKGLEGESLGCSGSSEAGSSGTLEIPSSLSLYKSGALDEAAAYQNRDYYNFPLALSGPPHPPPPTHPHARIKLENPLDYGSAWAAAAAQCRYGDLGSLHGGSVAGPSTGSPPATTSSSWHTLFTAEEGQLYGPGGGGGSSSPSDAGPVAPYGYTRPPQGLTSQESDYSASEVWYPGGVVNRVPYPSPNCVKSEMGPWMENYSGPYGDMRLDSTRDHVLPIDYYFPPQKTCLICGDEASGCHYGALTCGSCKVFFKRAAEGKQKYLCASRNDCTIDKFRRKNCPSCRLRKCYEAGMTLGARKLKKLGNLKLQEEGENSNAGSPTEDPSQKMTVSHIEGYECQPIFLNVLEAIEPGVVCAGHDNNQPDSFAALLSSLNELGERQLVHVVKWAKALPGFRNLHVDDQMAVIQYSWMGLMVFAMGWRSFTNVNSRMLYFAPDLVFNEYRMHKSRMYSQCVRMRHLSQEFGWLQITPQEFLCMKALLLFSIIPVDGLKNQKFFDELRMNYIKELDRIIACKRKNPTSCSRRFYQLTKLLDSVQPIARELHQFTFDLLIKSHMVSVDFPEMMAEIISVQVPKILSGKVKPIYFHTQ
The test is described as follows: Effective concentration against Androgen receptor.

In test [2] the target is T1, Androgen receptor. The test is described as follows: Inhibitory activity against Androgen receptor.
Test [3] has as its target T2, Glucocorticoid receptor (Homo sapiens, UniProt P04150).
T2 sequence (P04150 whole entry): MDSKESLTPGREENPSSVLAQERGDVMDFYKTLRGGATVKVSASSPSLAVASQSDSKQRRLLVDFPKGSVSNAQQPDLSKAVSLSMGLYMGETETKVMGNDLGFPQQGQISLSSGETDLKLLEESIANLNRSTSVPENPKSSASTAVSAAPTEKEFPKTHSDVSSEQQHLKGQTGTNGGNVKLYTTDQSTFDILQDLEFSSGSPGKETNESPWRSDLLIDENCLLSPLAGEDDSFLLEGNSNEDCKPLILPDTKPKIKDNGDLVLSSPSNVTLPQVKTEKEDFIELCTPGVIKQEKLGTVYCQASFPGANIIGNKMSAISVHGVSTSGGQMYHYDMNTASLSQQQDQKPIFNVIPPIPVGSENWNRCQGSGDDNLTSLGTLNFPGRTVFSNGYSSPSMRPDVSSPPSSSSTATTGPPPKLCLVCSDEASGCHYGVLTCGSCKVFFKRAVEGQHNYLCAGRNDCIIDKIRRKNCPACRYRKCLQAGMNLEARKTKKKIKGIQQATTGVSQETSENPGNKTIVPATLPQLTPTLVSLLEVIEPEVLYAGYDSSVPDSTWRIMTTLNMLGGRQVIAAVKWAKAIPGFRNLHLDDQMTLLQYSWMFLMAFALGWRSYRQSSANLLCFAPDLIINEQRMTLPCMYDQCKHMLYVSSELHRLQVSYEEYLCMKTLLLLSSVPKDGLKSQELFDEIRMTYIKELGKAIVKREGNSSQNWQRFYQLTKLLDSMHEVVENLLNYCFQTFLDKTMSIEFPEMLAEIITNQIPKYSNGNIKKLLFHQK
The test is described as follows: Effective concentration against GR (glucocorticoid receptor).

The target in test [4] is T2, Glucocorticoid receptor. The test is described as follows: Inhibitory activity against GR (glucocorticoid receptor).
The target of test [5] is T3, Progesterone receptor (Homo sapiens, UniProt P06401).
T3 sequence (P06401 whole entry): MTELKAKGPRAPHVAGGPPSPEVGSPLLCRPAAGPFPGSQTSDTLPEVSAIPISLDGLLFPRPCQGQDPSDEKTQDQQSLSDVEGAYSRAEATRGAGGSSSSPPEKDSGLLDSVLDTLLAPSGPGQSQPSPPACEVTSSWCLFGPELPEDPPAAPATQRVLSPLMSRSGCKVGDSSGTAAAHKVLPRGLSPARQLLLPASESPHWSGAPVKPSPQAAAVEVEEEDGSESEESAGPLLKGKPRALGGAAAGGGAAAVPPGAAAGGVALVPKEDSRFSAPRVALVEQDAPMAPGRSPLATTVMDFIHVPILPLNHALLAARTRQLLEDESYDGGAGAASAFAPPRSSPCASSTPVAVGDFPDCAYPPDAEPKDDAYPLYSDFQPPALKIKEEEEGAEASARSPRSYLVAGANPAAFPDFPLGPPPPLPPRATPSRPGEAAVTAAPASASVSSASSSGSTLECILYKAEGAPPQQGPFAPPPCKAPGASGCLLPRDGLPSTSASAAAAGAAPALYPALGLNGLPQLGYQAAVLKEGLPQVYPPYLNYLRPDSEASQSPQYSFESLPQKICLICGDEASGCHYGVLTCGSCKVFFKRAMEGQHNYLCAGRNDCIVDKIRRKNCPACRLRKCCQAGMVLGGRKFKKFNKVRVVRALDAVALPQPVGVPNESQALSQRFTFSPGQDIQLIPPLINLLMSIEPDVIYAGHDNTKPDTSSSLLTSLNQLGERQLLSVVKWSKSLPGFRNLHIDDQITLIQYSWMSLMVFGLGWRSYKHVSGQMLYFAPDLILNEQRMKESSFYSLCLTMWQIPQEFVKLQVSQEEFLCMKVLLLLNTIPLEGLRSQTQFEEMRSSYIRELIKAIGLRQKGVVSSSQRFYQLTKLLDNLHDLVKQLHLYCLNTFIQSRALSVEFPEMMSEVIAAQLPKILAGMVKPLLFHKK
The experiment in a line: Effective concentration against PR (progesterone receptor).

Test [6] deals with T3, Progesterone receptor. The experiment in a line: Inhibition of [3H]P4 to progesterone receptor (PR) of human T47D breast carcinoma cells. It counts as cell-based.
Test [7] concerns the target T3, Progesterone receptor. The test is described as follows: Effective concentration on alkaline phosphatase activity in human T47D breast carcinoma cell line. It counts as functional, cell-based.

Where only a bound is given, the exact number is not on record here.

In the case of `CC1(C)OC(=S)Nc2ccc(-c3csc(C#N)c3)cc21`, the EC50 on Androgen receptor [1] is more than 10000 nM; on Glucocorticoid receptor [3], more than 10000 nM; at Progesterone receptor [5], 0.38 nM; at Progesterone receptor [7], 0.4 nM. Besides, the IC50 against Androgen receptor [2] was 379 nM; at Glucocorticoid receptor [4], 1320 nM; at Progesterone receptor [6], 3 nM.

Source of the values: ChEMBL document CHEMBL1136686 (Bioorg Med Chem Lett, 2003).
